# Assay results from paper PMC9281440, “In Vivo Distribution and Therapeutic Efficacy of Radioiodine-Labeled pH-Low Insertion Peptide Variant 3 in a Mouse Model of Breast Cancer” (Molecular Imaging, 2022).
# Read-outs that look alike come from different tables or passages of the source. Peptide text beside a SMILES is read from it.
# Experiments:
# [1] = In vitro stability of radiolabeled peptides in PBS at room temperature; type: physicochemical; conditions: room temperature (25°C), PBS buffer, radiochemical purity, thin-layer chromatography
# Method: WT-pHLIP and Var3-pHLIP were labeled with ^125I for in vivo imaging experiments, and Var3-pHLIP was labeled with ^131I for therapeutic efficacy experiments. Radioactive iodine binds to tyrosine residues in pHLIPs. Peptides were dissolved in 200 μL of 0.02 M PBS (pH 7.4) to reach a concentration of 1 mg/mL and mixed with 10 μL of Na^125I (74 MBq) or 20 μL of Na^131I (925 MBq). Chloramine-T (20 μL, 5 mg/mL) was added to the test tubes and mixed for 70 s at room temperature. The reaction was stopped by adding 200 μL of sodium metabisulfite (5 mg/mL). The peptides were eluted in ethanol through a C18 column equilibrated with 20 mL of 100% ethanol and 20 mL of distilled water. The radioactive purity of ^125I-WT-pHLIP, ^125I-Var3-pHLIP, and ^131I-Var3-pHLIP was determined using thin-layer chromatography. Furthermore, the radiochemical purity of ^125I-WT-pHLIP, ^125I-Var3-pHLIP, and ^131I-Var3-pHLIP was measured, and chemical stability was determined at 24 and 48 h at room temperature (25°C) in PBS and at 37°C in serum.
# [2] = Micro-SPECT/CT imaging and distribution of 125I-labeled pHLIPs; type: in vivo, mouse; conditions: female, mouse, total radioactivity, 3.7 MBq iv, micro-SPECT/CT ROI, mean ± SD, n = 4; for tissue uptake at 1 h: 1 h pi; for tissue uptake at 2 h: 2 h pi; for tissue uptake at 4 h: 4 h pi; for tissue uptake at 24 h: 24 h pi; for tissue uptake at 48 h: 48 h pi
# Method: Five-week-old female athymic BALB/c nude mice (Shanghai Slaccas Experiment Animal Corp., Shanghai, China) were used in our study. Mouse xenograft models of MDA-MB-231, 4T1, and SK-BR-3 cells were produced by the subcutaneous injection of 5 × 10^6 cells (suspended in 150 μL PBS) into the right axilla of each mouse. The mice were used in subsequent experiments when tumor diameter reached 0.5-0.9 cm. The study protocol was approved by the institutional review board and by the Experimental Animal Center of Ruijin Hospital affiliated to the School of Medicine of Shanghai Jiao Tong University.
# Three days before micro-SPECT/CT imaging, 300 μL of 1% Kl solution was administered to mice by oral gavage once a day, and 0.1% Kl was added into the drinking water to block thyroid gland activity. Mice-bearing MDA-MB-231, 4T1, or SK-BR-3 tumors were intravenously injected with 3.7 MBq of ^125I-WT-pHLIP or ^125I-Var3-pHLIP. Each group contained four mice. The mice were anesthetized by isoflurane inhalation, placed in the prone position, and scanned using a four-head SPECT/CT system (U-SPECT/CT, MI-Lab, Netherlands) and dedicated multipinhole apertures with a diameter of 1.5 mm at 1, 2, 4, 24, and 48 h after injection of ^125I-labeled peptides. CT images were acquired after static SPECT imaging (10 min/frame). The images were reconstructed using U-SPECT REC software and analyzed using PMOD software version 3.9 (Switzerland). Regions of interest (ROIs) were drawn in the tumors and organs, including the brain, heart, liver, lungs, kidneys, intestine, and bladder, at various time points. The radioactivity per gram (ID%/g) in the ROIs was measured to obtain the dynamic tumor-to-background ratio (TBR, muscle tissue was used as the background) and the in vivo distribution and kinetics of ^125I-WT-pHLIP and ^125I-Var3-pHLIP in the xenograft models of BC.
# [3] = BALB/c nude, bladder, MDA-MB-231 tumor-bearing nude mice, read-out: Distribution, Bladder
# [4] = BALB/c nude, intestine, MDA-MB-231 tumor-bearing nude mice, read-out: Distribution, Intestine
# [5] = BALB/c nude, muscle, MDA-MB-231 tumor-bearing nude mice, read-out: Distribution, Muscle
# [6] = BALB/c nude, MDA-MB-231 tumor-bearing nude mice, read-out: Distribution, Tumor
# [7] = BALB/c nude, SK-BR-3 tumor-bearing nude mice, read-out: Distribution, Tumor
# [8] = athymic BALB/c nude, bladder, SK-BR-3 tumor-bearing nude mice, read-out: Distribution, Bladder
# [9] = athymic BALB/c nude, brain, MDA-MB-231 tumor-bearing nude mice, read-out: Distribution, Brain
# [10] = athymic BALB/c nude, brain, SK-BR-3 tumor-bearing nude mice, read-out: Distribution, Brain
# [11] = athymic BALB/c nude, heart, MDA-MB-231 tumor-bearing nude mice, read-out: Distribution, Heart
# [12] = athymic BALB/c nude, heart, SK-BR-3 tumor-bearing nude mice, read-out: Distribution, Heart
# [13] = athymic BALB/c nude, intestine, SK-BR-3 tumor-bearing nude mice, read-out: Distribution, Intestine
# [14] = athymic BALB/c nude, kidney, MDA-MB-231 tumor-bearing nude mice, read-out: Distribution, Kidney
# [15] = athymic BALB/c nude, kidney, SK-BR-3 tumor-bearing nude mice, read-out: Distribution, Kidney
# [16] = athymic BALB/c nude, liver, MDA-MB-231 tumor-bearing nude mice, read-out: Distribution, Liver
# [17] = athymic BALB/c nude, liver, SK-BR-3 tumor-bearing nude mice, read-out: Distribution, Liver
# [18] = athymic BALB/c nude, lung, MDA-MB-231 tumor-bearing nude mice, read-out: Distribution, Lung
# [19] = athymic BALB/c nude, lung, SK-BR-3 tumor-bearing nude mice, read-out: Distribution, Lung
# [20] = athymic BALB/c nude, muscle, SK-BR-3 tumor-bearing nude mice, read-out: Distribution, Muscle
smiles,measurement,setting,value
CC(C)C[C@H](NC(=O)[C@H](Cc1ccc(O)c(I)c1)NC(=O)[C@H](C)NC(=O)[C@H](CCCNC(=N)N)NC(=O)[C@H](Cc1c[nH]c2ccccc12)NC(=O)[C@@H]1CCCN1C(=O)[C@H](CC(N)=O)NC(=O)[C@H](CCC(N)=O)NC(=O)[C@H](CC(=O)O)NC(=O)[C@H](CC(=O)O)NC(=O)[C@H](CS)NC(=O)[C@H](C)N)C(=O)N[C@@H](CC(=O)O)C(=O)N[C@@H](CC(C)C)C(=O)N[C@@H](CC(C)C)C(=O)N[C@@H](Cc1ccccc1)C(=O)N1CCC[C@H]1C(=O)N[C@H](C(=O)N[C@@H](CC(=O)O)C(=O)N[C@H](C(=O)N[C@@H](CC(C)C)C(=O)N[C@@H](CC(C)C)C(=O)N[C@@H](CC(C)C)C(=O)N[C@@H](CC(=O)O)C(=O)N[C@@H](CC(C)C)C(=O)N[C@@H](CC(C)C)C(=O)N[C@@H](Cc1c[nH]c2ccccc12)C(=O)N[C@@H](CCCCN)C(=O)O)[C@@H](C)O)[C@@H](C)O [125I-Var3-pHLIP] (HELM PEPTIDE1{A.C.D.D.Q.N.P.W.R.A.[O=C([C@H](Cc1ccc(O)c(I)c1)N[*:1])[*:2]].L.D.L.L.F.P.T.D.T.L.L.L.D.L.L.W.K}$$$$V2.0; N-terminus and C-terminus assumed),stability,[1]; 24 h,> 95%
same,stability,[1]; 48 h,> 90%
same,tissue uptake at 1 h,[2]; [3],20.6 ± 5.71 %ID/g
same,tissue uptake at 2 h,[2]; [3],24.8 ± 3.51 %ID/g
same,tissue uptake at 4 h,[2]; [3],31.6 ± 15.9 %ID/g
same,tissue uptake at 24 h,[2]; [3],2.14 ± 0.88 %ID/g
same,tissue uptake at 48 h,[2]; [3],0.45 ± 0.14 %ID/g
same,tissue uptake at 1 h,"[2]; BALB/c nude, brain, MDA-MB-231 tumor-bearing nude mice, read-out: Distribution, Brain",1.02 ± 0.08 %ID/g
same,tissue uptake at 1 h,[2]; [4],2.59 ± 0.5 %ID/g
same,tissue uptake at 2 h,[2]; [4],3.18 ± 0.35 %ID/g
same,tissue uptake at 4 h,[2]; [4],2.12 ± 0.33 %ID/g
same,tissue uptake at 24 h,[2]; [4],0.2 ± 0.09 %ID/g
same,tissue uptake at 48 h,[2]; [4],0.1 ± 0.06 %ID/g
same,tissue uptake at 1 h,[2]; [5],1.12 ± 0.28 %ID/g
same,tissue uptake at 2 h,[2]; [5],0.96 ± 0.32 %ID/g
same,tissue uptake at 4 h,[2]; [5],0.67 ± 0.21 %ID/g
same,tissue uptake at 24 h,[2]; [5],0.09 ± 0.03 %ID/g
same,tissue uptake at 48 h,[2]; [5],0.04 ± 0.01 %ID/g
same,tissue uptake at 1 h,[2]; [6],3.16 ± 0.67 %ID/g
same,tissue uptake at 2 h,[2]; [6],3.76 ± 0.37 %ID/g
same,tissue uptake at 4 h,[2]; [6],3.09 ± 0.44 %ID/g
same,tissue uptake at 24 h,[2]; [6],0.47 ± 0.12 %ID/g
same,tissue uptake at 48 h,[2]; [6],0.22 ± 0.07 %ID/g
same,tissue uptake at 2 h,[2]; [7],2.94 ± 0.71 %ID/g
same,tissue uptake at 4 h,[2]; [7],2.45 ± 0.32 %ID/g
same,tissue uptake at 24 h,[2]; [7],0.26 ± 0.06 %ID/g
same,tissue uptake at 48 h,[2]; [7],0.18 ± 0.06 %ID/g
same,tissue uptake at 1 h,[2]; [8],18.2 ± 4.14 %ID/g
same,tissue uptake at 2 h,[2]; [8],18.7 ± 15.6 %ID/g
same,tissue uptake at 4 h,[2]; [8],23.4 ± 6.56 %ID/g
same,tissue uptake at 24 h,[2]; [8],2.44 ± 2.14 %ID/g
same,tissue uptake at 48 h,[2]; [8],0.21 ± 0.21 %ID/g
same,tissue uptake at 2 h,[2]; [9],1.13 ± 0.12 %ID/g
same,tissue uptake at 4 h,[2]; [9],0.75 ± 0.27 %ID/g
same,tissue uptake at 24 h,[2]; [9],0.13 ± 0.07 %ID/g
same,tissue uptake at 48 h,[2]; [9],0.09 ± 0.05 %ID/g
same,tissue uptake at 1 h,[2]; [10],1.02 ± 0.07 %ID/g
same,tissue uptake at 2 h,[2]; [10],0.95 ± 0.07 %ID/g
same,tissue uptake at 4 h,[2]; [10],0.68 ± 0.2 %ID/g
same,tissue uptake at 24 h,[2]; [10],0.09 ± 0.02 %ID/g
same,tissue uptake at 48 h,[2]; [10],0.09 ± 0.01 %ID/g
same,tissue uptake at 1 h,[2]; [11],9.47 ± 1.54 %ID/g
same,tissue uptake at 2 h,[2]; [11],8.29 ± 0.52 %ID/g
same,tissue uptake at 4 h,[2]; [11],5.35 ± 0.93 %ID/g
same,tissue uptake at 24 h,[2]; [11],0.39 ± 0.13 %ID/g
same,tissue uptake at 48 h,[2]; [11],0.14 ± 0.05 %ID/g
same,tissue uptake at 1 h,[2]; [12],10.3 ± 0.54 %ID/g
same,tissue uptake at 2 h,[2]; [12],8.89 ± 0.18 %ID/g
same,tissue uptake at 4 h,[2]; [12],6.02 ± 1.35 %ID/g
same,tissue uptake at 24 h,[2]; [12],0.38 ± 0.08 %ID/g
same,tissue uptake at 48 h,[2]; [12],0.1 ± 0.02 %ID/g
same,tissue uptake at 1 h,[2]; [13],3.05 ± 0.68 %ID/g
same,tissue uptake at 2 h,[2]; [13],3.01 ± 0.26 %ID/g
same,tissue uptake at 4 h,[2]; [13],2.38 ± 0.68 %ID/g
same,tissue uptake at 24 h,[2]; [13],0.31 ± 0.14 %ID/g
same,tissue uptake at 48 h,[2]; [13],0.07 ± 0.04 %ID/g
same,tissue uptake at 1 h,[2]; [14],5.66 ± 2.26 %ID/g
same,tissue uptake at 2 h,[2]; [14],5.61 ± 0.71 %ID/g
same,tissue uptake at 4 h,[2]; [14],3.8 ± 0.89 %ID/g
same,tissue uptake at 24 h,[2]; [14],0.41 ± 0.04 %ID/g
same,tissue uptake at 48 h,[2]; [14],0.25 ± 0.13 %ID/g
same,tissue uptake at 1 h,[2]; [15],6.67 ± 1.07 %ID/g
same,tissue uptake at 2 h,[2]; [15],4.24 ± 0.97 %ID/g
same,tissue uptake at 4 h,[2]; [15],3.56 ± 0.65 %ID/g
same,tissue uptake at 24 h,[2]; [15],0.42 ± 0.11 %ID/g
same,tissue uptake at 48 h,[2]; [15],0.18 ± 0.1 %ID/g
same,tissue uptake at 1 h,[2]; [16],10.3 ± 1.33 %ID/g
same,tissue uptake at 2 h,[2]; [16],10.2 ± 0.66 %ID/g
same,tissue uptake at 4 h,[2]; [16],8.11 ± 1.63 %ID/g
same,tissue uptake at 24 h,[2]; [16],1 ± 0.54 %ID/g
same,tissue uptake at 48 h,[2]; [16],0.4 ± 0.22 %ID/g
same,tissue uptake at 1 h,[2]; [17],11.4 ± 0.87 %ID/g
same,tissue uptake at 2 h,[2]; [17],10.4 ± 1.6 %ID/g
same,tissue uptake at 4 h,[2]; [17],11.4 ± 2.75 %ID/g
same,tissue uptake at 24 h,[2]; [17],0.81 ± 0.2 %ID/g
same,tissue uptake at 48 h,[2]; [17],0.23 ± 0.02 %ID/g
same,tissue uptake at 1 h,[2]; [18],9.64 ± 0.8 %ID/g
same,tissue uptake at 2 h,[2]; [18],9.1 ± 0.61 %ID/g
same,tissue uptake at 4 h,[2]; [18],6.6 ± 0.88 %ID/g
same,tissue uptake at 24 h,[2]; [18],0.49 ± 0.22 %ID/g
same,tissue uptake at 48 h,[2]; [18],0.18 ± 0.05 %ID/g
same,tissue uptake at 1 h,[2]; [19],9.81 ± 0.82 %ID/g
same,tissue uptake at 2 h,[2]; [19],9.31 ± 1.03 %ID/g
same,tissue uptake at 4 h,[2]; [19],6.93 ± 1.24 %ID/g
same,tissue uptake at 24 h,[2]; [19],0.42 ± 0.12 %ID/g
same,tissue uptake at 48 h,[2]; [19],0.14 ± 0.05 %ID/g
same,tissue uptake at 1 h,[2]; [20],1.33 ± 0.3 %ID/g
same,tissue uptake at 2 h,[2]; [20],1.21 ± 0.26 %ID/g
same,tissue uptake at 4 h,[2]; [20],0.7 ± 0.12 %ID/g
same,tissue uptake at 24 h,[2]; [20],0.06 ± 0.02 %ID/g
same,tissue uptake at 48 h,[2]; [20],0.04 ± 0.02 %ID/g
same,tissue uptake at 1 h,"[2]; athymic BALB/c nude, SK-BR-3 tumor-bearing nude mice, read-out: Distribution, Tumor",2.68 ± 1.34 %ID/g
